For orientation: IC50 means the concentration that inhibits the measured activity by half.

This passage reports IC50 results from patent publication US20230081390A1, “INHIBITORS OF RAF KINASES” (Kinnate Biopharma Inc., priority 2019, published 2023).

The assay concerns the target human RAF1 (Homo sapiens, UniProt P04049). In words: Protein kinase assay (33P-ATP filter binding), human RAF1, 10-dose IC50. Type of assay: biochemical. Conditions: MEK1 (K97R) substrate 3 micromolar, ATP 10 micromolar, read-out: RAF-1 IC50. The procedure, abridged: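 Radiometric filter-binding format: 10 µM ATP, 3 µM MEK1 (K97R) as substrate for human RAF1, 2 hr at room temperature in 20 mM HEPES pH 7.5 with 10 mM MgCl2. Compounds were dispensed acoustically from DMSO. IC50 came from percent kinase activity relative to vehicle over a 10-dose series.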

Chain of human RAF1 (P04049 whole entry): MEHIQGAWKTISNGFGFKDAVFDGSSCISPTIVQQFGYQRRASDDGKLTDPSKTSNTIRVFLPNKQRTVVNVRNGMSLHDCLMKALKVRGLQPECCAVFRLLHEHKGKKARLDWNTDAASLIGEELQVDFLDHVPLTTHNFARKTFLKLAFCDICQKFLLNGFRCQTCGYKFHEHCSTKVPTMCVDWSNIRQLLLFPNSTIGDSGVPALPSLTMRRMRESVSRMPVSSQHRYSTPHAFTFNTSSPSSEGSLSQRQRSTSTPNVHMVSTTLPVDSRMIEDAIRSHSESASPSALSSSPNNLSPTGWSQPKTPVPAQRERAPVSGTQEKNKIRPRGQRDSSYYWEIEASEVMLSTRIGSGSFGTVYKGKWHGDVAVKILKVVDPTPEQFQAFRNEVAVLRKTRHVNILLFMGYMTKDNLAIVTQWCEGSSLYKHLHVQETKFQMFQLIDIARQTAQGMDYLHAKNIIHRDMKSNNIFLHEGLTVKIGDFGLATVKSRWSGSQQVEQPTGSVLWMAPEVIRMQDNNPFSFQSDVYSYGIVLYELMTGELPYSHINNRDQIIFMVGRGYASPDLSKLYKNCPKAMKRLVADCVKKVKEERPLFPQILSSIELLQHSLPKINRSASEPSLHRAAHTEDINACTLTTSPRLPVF

Consider `Cc1cc(F)c(NC(=O)N2C[C@H](N)C[C@H](C(F)(F)F)C2)cc1-c1cc(OCCO)nc(N2CCOCC2)c1` [Example 55, (3R,5S)-3-amino-N-[2-fluoro-5-[2-(2-hydroxyethoxy)-6-(morpholin-4-yl)pyridin-4-yl]-4-methylphenyl]-5-(trifluoromethyl)piperidine-1-carboxamide], for which the IC50 was less than 10 nM.

As for `Cc1cc(F)c(NC(=O)NC(C)CC(F)(F)F)cc1-c1cc(OCCO)nc(N2CCOCC2)c1` (stereo not shown) [Example 57, 1-[2-fluoro-5-[2-(2-hydroxyethoxy)-6-(morpholin-4-yl)pyridin-4-yl]-4-methylphenyl]-3-(4,4,4-trifluorobutan-2-yl)urea], the half-maximal inhibitory concentration (IC50) is less than 10 nM.

Turning to `Cc1cc(F)c(NC(=O)N2CC=C(C(F)(F)F)C2)cc1-c1cc(OCCO)nc(N2CCOCC2)c1` [Example 72, N-[2-fluoro-5-[2-(2-hydroxyethoxy)-6-(morpholin-4-yl)pyriidn-4-yl]-4-methylphenyl]-3-(trifluoromethyl)-2,5-dihydropyrrole-1-carboxamide], the IC50 is less than 10 nM.

In the case of `Cc1cc(F)c(NC(=O)N2CCC3(CCCC3)C2)cc1-c1cc(OCCO)nc(N2CCOCC2)c1` [Example 73, N-(2-fluoro-5-(2-(2-hydroxyethoxy)-6-morpholinopyridin-4-yl)-4-methylphenyl)-2-azaspiro[4.4]nonane-2-carboxamide], the half-maximal inhibitory concentration (IC50) is less than 10 nM.

For `Cc1cc(F)c(NC(=O)N2CCC(C(O)C(F)(F)F)C2)cc1-c1cc(OCCO)nc(N2CCOCC2)c1` (stereo not shown) [Example 76, N-[2-fluoro-5-[2-(2-hydroxyethoxy)-6-(morpholin-4-yl)pyridin-4-yl]-4-methylphenyl]-3-(2,2,2-trifluoro-1-hydroxyethyl)pyrrolidine-1-carboxamide], the half-maximal inhibitory concentration (IC50) was less than 10 nM.

On to `Cc1cc(F)c(NC(=O)N2CC=C(C(F)(F)C(F)(F)F)C2)cc1-c1cc(OCCO)nc(N2CCOCC2)c1` [Example 79, N-[2-fluoro-5-[2-(2-hydroxyethoxy)-6-(morpholin-4-yl)pyridin-4-yl]-4-methylphenyl]-3-(1,1,2,2,2-pentafluoroethyl)-2,5-dihydropyrrole-1-carboxamide], for which the IC50 was less than 10 nM.

Take `Cc1cc(F)c(NC(=O)N2CCO[C@@H](C(F)(F)F)C2)cc1-c1cnc(OC2CCOCC2)c(N2CCOCC2)c1` [Example 87, (2R)-N-[2-fluoro-4-methyl-5-[5-(morpholin-4-yl)-6-(oxan-4-yloxy)pyridin-3-yl]phenyl]-2-(trifluoromethyl)morpholine-4-carboxamide]: the IC50 was less than 10 nM.

`Cc1cc(F)c(NC(=O)N2CC/C(=C/C(F)(F)F)C2)cc1-c1cc(OCCO)nc(N2CCOCC2)c1` [Example 92, (Z)-N-(2-fluoro-5-(2-(2-hydroxyethoxy)-6-morpholinopyridin-4-yl)-4-methylphenyl)-3-(2,2,2-trifluoroethylidene)pyrrolidine-1-carboxamide]: the 50% inhibitory concentration (IC50) was less than 10 nM.

As for `Cc1cc(F)c(NC(=O)N2CC/C(=C\C(F)(F)F)C2)cc1-c1cc(OCCO)nc(N2CCOCC2)c1` [Example 93, (E)-N-(2-fluoro-5-(2-(2-hydroxyethoxy)-6-morpholinopyridin-4-yl)-4-methylphenyl)-3-(2,2,2-trifluoroethylidene)pyrrolidine-1-carboxamide], the half-inhibitory concentration (IC50) was less than 10 nM.

Take `C/C(=C1\CCN(C(=O)Nc2cc(-c3cc(OCCO)nc(N4CCOCC4)c3)c(C)cc2F)C1)C(F)(F)F` [Example 94, (3Z)-N-[2-fluoro-5-[2-(2-hydroxyethoxy)-6-(morpholin-4-yl)pyridin-4-yl]-4-methylphenyl]-3-(1,1,1-trifluoropropan-2-ylidene)pyrrolidine-1-carboxamide]: the IC50 was less than 10 nM.

As for `C/C(=C1/CCN(C(=O)Nc2cc(-c3cc(OCCO)nc(N4CCOCC4)c3)c(C)cc2F)C1)C(F)(F)F` [Example 95, (3E)-N-[2-fluoro-5-[2-(2-hydroxyethoxy)-6-(morpholin-4-yl)pyridin-4-yl]-4-methylphenyl]-3-(1,1,1-trifluoropropan-2-ylidene)pyrrolidine-1-carboxamide], the IC50 was less than 10 nM.

On to `Cc1cc(F)c(NC(=O)N2CC=C(CC(F)(F)F)C2)cc1-c1cc(OCCO)nc(N2CCOCC2)c1` [Example 96, N-[2-fluoro-5-[2-(2-hydroxyethoxy)-6-(morpholin-4-yl)pyridin-4-yl]-4-methylphenyl]-3-(2,2,2-trifluoroethyl)-2,5-dihydropyrrole-1-carboxamide], for which the IC50 was less than 10 nM.

With `C/C(C#N)=C1/CCN(C(=O)Nc2cc(-c3cc(OCCO)nc(N4CCOCC4)c3)c(C)cc2F)C1` [Example 98, (3E)-3-(1-cyanoethylidene)-N-[2-fluoro-5-[2-(2-hydroxyethoxy)-6-(morpholin-4-yl)pyridin-4-yl]-4-methylphenyl]pyrrolidine-1-carboxamide], the IC50 is less than 10 nM.

With `Cc1cc(F)c(NC(=O)N2CCC(C(C)(C)C#N)C2)cc1-c1cc(OCCO)nc(N2CCOCC2)c1` (stereo not shown) [Example 99, 3-(1-cyano-1-methylethyl)-N-[2-fluoro-5-[2-(2-hydroxyethoxy)-6-(morpholin-4-yl)pyridin-4-yl]-4-methylphenyl]pyrrolidine-1-carboxamide], the IC50 is less than 10 nM.

Regarding `Cc1cc(F)c(NC(=O)N2CCC(F)(F)C(C(F)(F)F)C2)cc1-c1cc(OCCO)nc(N2CCOCC2)c1` (stereo not shown) [Example 104, 4,4-difluoro-N-[2-fluoro-5-[2-(2-hydroxyethoxy)-6-(morpholin-4-yl)pyridin-4-yl]-4-methylphenyl]-3-(trifluoromethyl)piperidine-1-carboxamide], the IC50 is less than 10 nM.

For `Cc1cc(F)c(NC(=O)N2CC3(C(F)(F)F)CC2CO3)cc1-c1cc(OCCO)nc(N2CCOCC2)c1` (stereo not shown) [Example 107, N-[2-fluoro-5-[2-(2-hydroxyethoxy)-6-(morpholin-4-yl)pyridin-4-yl]-4-methylphenyl]-1-(trifluoromethyl)-2-oxa-5-azabicyclo[2.2.1]heptane-5-carboxamide], the IC50 is less than 10 nM.

Regarding `Cc1ccc(NC(=O)N2CCC(C3CC3(F)F)C2)cc1-c1cc(OCCO)nc(N2CCOCC2)c1` (stereo not shown) [Example 114, 3-(2,2-difluorocyclopropyl)-N-[3-[2-(2-hydroxyethoxy)-6-(morpholin-4-yl)pyridin-4-yl]-4-methylphenyl]pyrrolidine-1-carboxamide], the 50% inhibitory concentration (IC50) was less than 10 nM.

As to `Cc1ccc(NC(=O)N2CCC(CC(F)(F)F)C2)cc1-c1cnc(OC2CCOCC2)c(N2CCOCC2)c1` (stereo not shown) [Example 123, N-[4-methyl-3-[5-(morpholin-4-yl)-6-(oxan-4-yloxy)pyridin-3-yl]phenyl]-3-(2,2,2-trifluoroethyl)pyrrolidine-1-carboxamide], the IC50 was less than 10 nM.

Regarding `Cc1ccc(NC(=O)Nc2cnn(C(F)(F)F)c2)cc1-c1cc(OCCO)nc(N2CCOCC2)c1` [Example 125, 1-[3-[2-(2-hydroxyethoxy)-6-(morpholin-4-yl)pyridin-4-yl]-4-methylphenyl]-3-[1-(trifluoromethyl)pyrazol-4-yl]urea], the IC50 is less than 10 nM.

For `Cc1cc(F)c(NC(=O)N2CC[C@@H](OC(F)(F)F)C2)cc1-c1cnc(OC2CCOCC2)c(N2CCOCC2)c1` [Example 126, (3R)-N-[2-fluoro-4-methyl-5-[5-(morpholin-4-yl)-6-(oxan-4-yloxy)pyridin-3-yl]phenyl]-3-(trifluoromethoxy)pyrrolidine-1-carboxamide], the 50% inhibitory concentration (IC50) is less than 10 nM.

Consider `Cc1cc(F)c(NC(=O)N2CC[C@H](OC(F)(F)F)C2)cc1-c1cnc(OC2CCOCC2)c(N2CCOCC2)c1` [Example 127, (3S)-N-[2-fluoro-4-methyl-5-[5-(morpholin-4-yl)-6-(oxan-4-yloxy)pyridin-3-yl]phenyl]-3-(trifluoromethoxy)pyrrolidine-1-carboxamide], for which the IC50 is less than 10 nM.

Consider `Cc1ccc(NC(=O)N2CC[C@@H](OC(F)(F)F)C2)cc1-c1cnc(OC2CCOCC2)c(N2CCOCC2)c1` [Example 128, (3R)-N-[4-methyl-3-[5-(morpholin-4-yl)-6-(oxan-4-yloxy)pyridin-3-yl]phenyl]-3-(trifluoromethoxy)pyrrolidine-1-carboxamide], for which the IC50 was less than 10 nM.

With `Cc1ccc(NC(=O)N2CC[C@H](OC(F)(F)F)C2)cc1-c1cnc(OC2CCOCC2)c(N2CCOCC2)c1` [Example 129, (3S)-N-[4-methyl-3-[5-(morpholin-4-yl)-6-(oxan-4-yloxy)pyridin-3-yl]phenyl]-3-(trifluoromethoxy)pyrrolidine-1-carboxamide], the 50% inhibitory concentration (IC50) is less than 10 nM.

Take `Cc1ccc(NC(=O)Nc2cnn(C(F)(F)F)c2)cc1-c1cnc(OC2CCOCC2)c(N2CCOCC2)c1` [Example 130, 1-[4-methyl-3-[5-(morpholin-4-yl)-6-(oxan-4-yloxy)pyridin-3-yl]phenyl]-3-[1-(trifluoromethyl)pyrazol-4-yl]urea]: the half-inhibitory concentration (IC50) is less than 10 nM.

For the compound `Cc1ccc(NC(=O)N2CC[C@@H](SC(F)(F)F)C2)cc1-c1cnc(OC2CCOCC2)c(N2CCOCC2)c1` [Example 131, (3R)-N-[4-methyl-3-[5-(morpholin-4-yl)-6-(oxan-4-yloxy)pyridin-3-yl]phenyl]-3-[(trifluoromethyl)sulfanyl]pyrrolidine-1-carboxamide], the concentration for half-maximal inhibition (IC50) was less than 10 nM.

With `Cc1ccc(NC(=O)N2CC[C@H](SC(F)(F)F)C2)cc1-c1cnc(OC2CCOCC2)c(N2CCOCC2)c1` [Example 132, (3S)-N-[4-methyl-3-[5-(morpholin-4-yl)-6-(oxan-4-yloxy)pyridin-3-yl]phenyl]-3-[(trifluoromethyl)sulfanyl]pyrrolidine-1-carboxamide], the IC50 is less than 10 nM.

`Cc1ccc(NC(=O)N2CC[C@@H](OCC(F)(F)F)C2)cc1-c1cc(OCCO)nc(N2CCOCC2)c1` [Example 133, (3R)-N-[3-[2-(2-hydroxyethoxy)-6-(morpholin-4-yl)pyridin-4-yl]-4-methylphenyl]-3-(2,2,2-trifluoroethoxy)pyrrolidine-1-carboxamide]: the IC50 was less than 10 nM.

Regarding `Cc1ccc(NC(=O)N2CCC(S(=O)(=O)C(F)(F)F)C2)cc1-c1cc(OCCO)nc(N2CCOCC2)c1` (stereo not shown) [Example 134, N-[3-[2-(2-hydroxyethoxy)-6-(morpholin-4-yl)pyridin-4-yl]-4-methylphenyl]-3-trifluoromethanesulfonylpyrrolidine-1-carboxamide], the IC50 was less than 10 nM.
